≈ marks a conversion by molar mass, not a printed value. One block for each compound: values may come before it.
Columns and labels:
Type in all cases: functional
[1] = test system: Aspergillus fumigatus; assay: Potency index, ratio for MIC of fluconazole to MIC of compound for antifungal activity against Aspergillus fumigatus
[2] = test system: Aspergillus niger; assay: Potency index, ratio for MIC of fluconazole to MIC of compound for antifungal activity against Aspergillus niger
[3] = test system: Candida tropicalis; assay: Antifungal activity against Candida tropicalis assessed as reduction in fungal cell growth incubated for 48 hrs by broth microdilution method
[4] = test system: Candida albicans; assay: Antifungal activity against Candida albicans V-01-191A-261 assessed as reduction in fungal cell growth incubated for 48 hrs by broth microdilution method; conditions: V-01-191A-261, 48 h
[5] = test system: Pichia kudriavzevii; assay: Antifungal activity against Candida krusei assessed as reduction in fungal cell growth incubated for 48 hrs by broth microdilution method
[6] = test system: Aspergillus niger; assay: Antifungal activity against Aspergillus niger assessed as reduction in fungal cell growth incubated for 72 hrs by broth microdilution method
[7] = test system: Cryptococcus neoformans; assay: Antifungal activity against Cryptococcus neoformans LA314 assessed as reduction in fungal cell growth incubated for 48 hrs by broth microdilution method; conditions: LA314, 48 h
[8] = test system: Candida parapsilosis; assay: Antifungal activity against Candida parapsilosis ATCC 22019 assessed as reduction in fungal cell growth incubated for 48 hrs by broth microdilution method; conditions: Lodderomyces parapsilosis, ATCC 22019, 48 h
[9] = test system: Nakaseomyces glabratus; assay: Antifungal activity against Candida glabrata assessed as reduction in fungal cell growth incubated for 48 hrs by broth microdilution method
[10] = test system: Nakaseomyces glabratus; assay: Potency index, ratio for MIC of fluconazole to MIC of compound for antifungal activity against Candida glabrata NCIM 3236 assessed as reduction in fungal cell growth incubated for 24 hrs by broth microdilution method
[11] = test system: Candida tropicalis; assay: Antifungal activity against Candida tropicalis NCIM 3110 assessed as reduction in fungal cell growth incubated for 48 hrs by broth microdilution method; conditions: NCIM 3110, 48 h
[12] = test system: Candida albicans; assay: Antifungal activity against Candida albicans MTCC 227 assessed as reduction in fungal cell growth incubated for 24 hrs by broth microdilution method; conditions: MTCC 227, 24 h
[13] = test system: Candida tropicalis; assay: Potency index, ratio for MIC of fluconazole to MIC of compound for Antifungal activity against Candida tropicalis NCIM 3110 assessed as reduction in fungal cell growth incubated for 24 hrs by broth microdilution method
[14] = test system: Nakaseomyces glabratus; assay: Antifungal activity against Candida glabrata NCIM 3236 assessed as reduction in fungal cell growth incubated for 24 hrs by broth microdilution method; conditions: NCIM 3236, 24 h
[15] = test system: Nakaseomyces glabratus; assay: Antifungal activity against Candida glabrata ATCC 36583 by broth microdilution method
[16] = test system: Candida albicans; assay: Antifungal activity against Candida albicans
[17] = test system: Candida tropicalis; assay: Antifungal activity against Candida tropicalis by broth microdilution method
[18] = test system: Candida albicans; assay: Antifungal activity against Candida albicans assessed as reduction in fungal cell growth incubated for 24 and 72 hrs by cup plate method
[19] = test system: Aspergillus flavus; assay: Antifungal activity against Aspergillus flavus assessed as reduction in fungal cell growth incubated for 24 and 72 hrs by cup plate method
[20] = test system: Candida albicans; assay: Antifungal activity against Candida albicans MTCC 227 assessed as reduction in fungal cell growth incubated for 24 and 48 hrs by broth microdilution method
[21] = test system: Nakaseomyces glabratus; assay: Antifungal activity against Candida glabrata assessed as reduction in fungal cell growth incubated for 24 hrs by broth microdilution method
[22] = test system: Candida tropicalis; assay: Antifungal activity against Candida tropicalis assessed as reduction in fungal cell growth incubated for 24 hrs by broth microdilution method
[23] = test system: Pichia kudriavzevii; assay: Antifungal activity against Candida krusei assessed as reduction in fungal cell growth incubated for 24 hrs by broth microdilution method
[24] = test system: Candida albicans; assay: Antifungal activity against Candida albicans assessed as reduction in fungal cell growth incubated for 24 hrs by broth microdilution method
[25] = test system: Aspergillus fumigatus; assay: Antifungal activity against Aspergillus fumigatus NCIM 902 assessed as reduction in fungal cell growth incubated for 3 to 4 days by disk diffusion method
[26] = test system: Trichophyton mentagrophytes; assay: Antifungal activity against Trichophyton mentagrophytes assessed as reduction in fungal cell growth incubated for 3 to 4 days by disk diffusion method
[27] = test system: Aspergillus flavus; assay: Antifungal activity against Aspergillus flavus NCIM 524 assessed as reduction in fungal cell growth incubated for 3 to 4 days by disk diffusion method
[28] = test system: Talaromyces marneffei; assay: Antifungal activity against Penicillium marneffei assessed as reduction in fungal cell growth incubated for 3 to 4 days by disk diffusion method
[29] = test system: Aspergillus fumigatus; assay: Antifungal activity against Aspergillus fumigatus
[30] = test system: Aspergillus flavus; assay: Antifungal activity against Aspergillus flavus
[31] = test system: Candida albicans; assay: Antifungal activity against Candida albicans TA
[32] = test system: Candida albicans; assay: In vivo antifungal activity against Candida albicans TA infected in CDF-1 mouse dosed orally assessed as survival of mouse; conditions: po
[33] = test system: Candida albicans; assay: Potency index, ratio for MIC of fluconazole to MIC of compound for antifungal activity against Candida albicans TA
[34] = test system: Saccharomyces cerevisiae; assay: Antifungal activity against Saccharomyces cerevisiae
[35] = test system: Aspergillus niger; assay: Antifungal activity against Aspergillus niger
[36] = test system: Aspergillus flavus; assay: Antifungal activity against Aspergillus flavus assessed as inhibition zone at 1 ug/ml incubated for 24 to 72 hrs by disk diffusion method; conditions: read-out: IZ
[37] = test system: Aspergillus fumigatus; assay: Antifungal activity against Aspergillus fumigatus assessed as inhibition zone at 1 ug/ml incubated for 24 to 72 hrs by disk diffusion method; conditions: read-out: IZ
[38] = test system: Aspergillus niger; assay: Antifungal activity against Aspergillus niger assessed as inhibition zone at 1 ug/ml incubated for 24 to 72 hrs by disk diffusion method; conditions: read-out: IZ
[39] = test system: Trichoderma harzianum; assay: Antifungal activity against Trichoderma harzianum assessed as inhibition zone at 1 ug/ml incubated for 24 to 72 hrs by disk diffusion method; conditions: read-out: IZ

SMILES: O=C(/C=C/c1ccc(OC(F)F)c(O)c1)c1ccc(-n2cnnn2)cc1
Ratio [1]: >4 | Ratio [2]: >4

SMILES: CC[C@@H]([C@H](C)O)n1ncn(-c2ccc(N3CCN(c4ccc(OC[C@@H]5CO[C@@](Cn6cncn6)(c6ccc(F)cc6F)C5)cc4)CC3)cc2)c1=O [POSACONAZOLE]
MIC [3]: 0.12 to 1 µg/mL (≈ 0.171 to 1.43 µM) | MIC [4]: 0.12 to 1 µg/mL (≈ 0.171 to 1.43 µM) | MIC [5]: 0.12 to 1 µg/mL (≈ 0.171 to 1.43 µM) | MIC [6]: 0.12 to 1 µg/mL (≈ 0.171 to 1.43 µM) | MIC [7]: 0.12 to 1 µg/mL (≈ 0.171 to 1.43 µM) | MIC [8]: 0.12 to 1 µg/mL (≈ 0.171 to 1.43 µM) | MIC [9]: 0.12 to 1 µg/mL (≈ 0.171 to 1.43 µM)

SMILES: O=c1c(OCc2nnn[nH]2)c(-c2ccc(F)cc2)oc2c(Cl)cc(Cl)cc12
Ratio [10]: 8 - 64 | MIC [11]: 12.5 to 50 µg/mL (≈ 30.7 to 123 µM) | MIC [12]: 12.5 to 50 µg/mL (≈ 30.7 to 123 µM) | Ratio [13]: 8 - 64 | MIC [14]: 12.5 to 50 µg/mL (≈ 30.7 to 123 µM)

SMILES: c1ccc(-n2nnnc2SCCCSc2nnnn2C2CC2)cc1
MIC [25]: 6.25 to 50 µg/mL (≈ 17.3 to 139 µM) | MIC [26]: 6.25 to 50 µg/mL (≈ 17.3 to 139 µM) | MIC [27]: 6.25 to 50 µg/mL (≈ 17.3 to 139 µM) | MIC [28]: 6.25 to 50 µg/mL (≈ 17.3 to 139 µM)

SMILES: C[C@@H](n1cnnn1)[C@](O)(Cn1cncn1)c1ccc(F)cc1F
MIC [31]: 12.5 µg/mL (≈ 38.9 µM) | ED50 [32]: 0.18 mg/kg | Ratio [33]: 8

SMILES: O=C(/C=C/c1ccc([N+](=O)[O-])cc1)c1ccc(-n2nnnc2-c2nc(-c3nnnn3-c3ccc(C(=O)/C=C/c4ccc([N+](=O)[O-])cc4)cc3)nc(-c3nnnn3-c3ccc(C(=O)/C=C/c4ccc([N+](=O)[O-])cc4)cc3)n2)cc1
MIC [34]: < 2.5 µg/mL | MIC [29]: < 2.5 µg/mL | MIC [35]: < 2.5 µg/mL | MIC [16]: < 2.5 µg/mL

SMILES: N#Cc1c(-c2ccco2)nc2sc3c4nnnn4cnc3n2c1=O
zone of inhibition at 1 µg/mL [36]: 1.8 to 2.5 mm | zone of inhibition at 1 µg/mL [37]: 1.8 to 2.5 mm | zone of inhibition at 1 µg/mL [38]: 1.8 to 2.5 mm | zone of inhibition at 1 µg/mL [39]: 1.8 to 2.5 mm

More lines, main results first:

MIC [15]: 25 to 50 µg/mL (≈ 49 to 98 µM) | MIC [16]: 25 to 50 µg/mL (≈ 49 to 98 µM) | MIC [17]: 25 to 50 µg/mL (≈ 49 to 98 µM)
SMILES: Cn1c(-c2ccc(NC(=O)CSc3nnnn3-c3ccccc3)cc2)nc2cc(Cl)c(Cl)cc21

MIC [15]: 25 to 50 µg/mL (≈ 55.8 to 112 µM) | MIC [16]: 25 to 50 µg/mL (≈ 55.8 to 112 µM) | MIC [17]: 25 to 50 µg/mL (≈ 55.8 to 112 µM)
SMILES: Cn1nnnc1SCC(=O)Nc1ccc(-c2nc3cc(Cl)c(Cl)cc3n2C)cc1

MIC [18]: 10 µg/mL (≈ 28.3 µM) | MIC [19]: 10 µg/mL (≈ 28.3 µM) | MIC [20]: 500 µg/mL (≈ 1420 µM)
SMILES: COC1=CC(=O)C[C@@H](C)[C@]12Oc1c(Cl)c(OC)cc(OC)c1C2=O [GRISEOFULVIN]

MIC [21]: 16 µg/mL (≈ 20.7 µM) | MIC [22]: 16 µg/mL (≈ 20.7 µM) | MIC [23]: 16 µg/mL (≈ 20.7 µM) | MIC [24]: 16 µg/mL (≈ 20.7 µM)
SMILES: Fc1cc2nc(SCc3ccc(-c4ccccc4-c4nnnn4C(c4ccccc4)(c4ccccc4)c4ccccc4)cc3)[nH]c2cc1Oc1ccc(Cl)cc1

MIC [11]: 12.5 to 50 µg/mL (≈ 33.5 to 134 µM) | MIC [12]: 12.5 to 25 µg/mL (≈ 33.5 to 67.1 µM) | MIC [14]: 12.5 to 50 µg/mL (≈ 33.5 to 134 µM)
SMILES: O=c1c(OCc2nnn[nH]2)c(-c2ccc(F)cc2)oc2ccc(Cl)cc12
Ratio [10]: 16 - 64 | Ratio [13]: 16 - 64

MIC [29]: 1.5 µg/mL (≈ 2.85 µM) | MIC [30]: 1.5 µg/mL (≈ 2.85 µM)
SMILES: CC[C@H]1O[C@@H](/C(C)=C/[C@H](C)/C=C/[C@@H]2[C@@H](C)[C@@H]2/C=C/[C@@H]2O[C@H](Cc3nn[nH]n3)C[C@H](N(C)C)[C@H]2O)CC=C1C

MIC [11]: 12.5 to 50 µg/mL (≈ 35.5 to 142 µM) | MIC [12]: 12.5 to 50 µg/mL (≈ 35.5 to 142 µM) | MIC [14]: 12.5 to 50 µg/mL (≈ 35.5 to 142 µM)
SMILES: Cc1ccc2oc(-c3ccc(F)cc3)c(OCc3nnn[nH]3)c(=O)c2c1
Ratio [10]: 8 - 64 | Ratio [13]: 8 - 64

Reference: ChEMBL document CHEMBL4393657, “Tetrazole hybrids and their antifungal activities” (2019)
